# Tests used:
# Assay in all cases: drug sensitivity score (DSS) from 5-point dose-response viability curve (DSS (area-under-curve based score)); higher = more sensitive (stronger growth inhibition or killing); extreme values may be limits of the assay
# Details in all cases: exposure time: 72 h; concentration range: 5 concentrations over 10,000-fold range
# OVCAR4 = system: OVCAR4
# Summary of the method: (§1)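 Drug sensitivity scores were calculated in Breeze software for each cell line and drug pair; higher scores indicate more sensitivity. A score of zero indicates no response. The underlying assay used 384-well plates: drugs were placed by an Echo 550 acoustic dispenser at five concentrations spanning a 10,000-fold range, 1,500 ovarian cancer or normal ovarian cells were added per well, and cells were kept 3 days at 37°C, 5% CO2. Viability was then measured with CellTiter-Glo luminescence on a PHERAstar FS.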
# OVCAR5 = system: OVCAR5
# Summary of the method: as §1
# Kuramochi = system: Kuramochi
# Summary of the method: as §1
# CAOV3 = system: CAOV3
# Summary of the method: as §1
# COV318 = system: COV318
# Summary of the method: as §1
# JHOS2 = system: JHOS2
# Summary of the method: as §1
# HOSE1C = system: HOSE1C
# Summary of the method: as §1
# OV90 = system: OV90
# Summary of the method: as §1
# HOSE2C = system: HOSE2C
# Summary of the method: as §1
# Ovsaho = system: Ovsaho
# Summary of the method: as §1
# COV362 = system: COV362
# Summary of the method: as §1
# OVCAR8 = system: OVCAR8
# Summary of the method: as §1
Compound,drug sensitivity score (OVCAR4),drug sensitivity score (OVCAR5),drug sensitivity score (Kuramochi),drug sensitivity score (CAOV3),drug sensitivity score (COV318),drug sensitivity score (JHOS2),drug sensitivity score (HOSE1C),drug sensitivity score (OV90),drug sensitivity score (HOSE2C),drug sensitivity score (Ovsaho),drug sensitivity score (COV362),drug sensitivity score (OVCAR8)
Cc1c(N)nc([C@H](CC(N)=O)NC[C@H](N)C(N)=O)nc1C(=O)N[C@H](C(=O)N[C@H](C)[C@@H](O)[C@H](C)C(=O)N[C@H](C(=O)NCCc1nc(-c2nc(C(=O)NCCC[S+](C)C)cs2)cs1)[C@@H](C)O)[C@@H](OC1OC(CO)C(O)C(O)C1OC1OC(CO)C(O)C(OC(N)=O)C1O)c1cnc[nH]1 (stereo not given in full) [Bleomycin],0.6,2.3,0,2.2,0,0.8,2.8,2.6,4.5,1,0,5.6
Nc1nc(Cl)nc2c1ncn2[C@@H]1O[C@H](CO)[C@@H](O)[C@@H]1F [Clofarabine],0,9.5,3,17.1,4.7,13.5,25,11.9,24.1,4.7,7.3,22.4
CC1=C2C[C@H]3[C@@H](CC[C@@H]4C[C@H](NS(C)(=O)=O)CC[C@@]43C)[C@@H]2CC[C@@]2(C1)O[C@@H]1C[C@H](C)CN[C@H]1[C@H]2C [Saridegib],0,0,0,0.5,0,0,2.3,0,0.1,0,0,0.4
COc1cc(C)c(/C=C/C(C)=C/C=C/C(C)=C/C(=O)O)c(C)c1C [Acitretin],0,0,0,0,0,1.3,0.1,0.2,0,0,0,0
CN(C)c1cc2c(cc1Sc1nc3c(N)nccc3n1CCNCC(C)(C)C)OCO2 [CUDC-305],8.5,10.8,5.9,14.5,4,10.8,11.5,14.5,15.3,3,8.8,16.4
O[C@H]1CC[C@H](Nc2ncc3nc(Nc4c(F)cc(F)cc4F)n([C@H]4CCOC4)c3n2)CC1 [Tanzisertib],0,1.9,0.8,0,0,0,0,0,0,0.4,0,0
CCC1=C[C@@H]2CN(C1)Cc1c([nH]c3ccccc13)[C@@](C(=O)OC)(c1cc3c(cc1OC)N(C)[C@H]1[C@@](O)(C(=O)OC)[C@H](OC(C)=O)[C@]4(CC)C=CCN5CC[C@]31[C@@H]54)C2 [Vinorelbine],12.7,19.5,12.6,16.4,8.1,9.7,30.2,26.5,32.1,19.9,8.9,27.6
Cn1nnc2c(C(N)=O)ncn2c1=O [Temozolomide],0,0,0,0,0,0,0,0,0.5,0,0,0
Cc1ccc(-c2cc(C(F)(F)F)nn2-c2ccc(S(N)(=O)=O)cc2)cc1 [Celecoxib],0,0,0,0,0,0,0,0,0,0,0,0
Cc1cccc(-c2[nH]c(CNc3ccccc3F)nc2-c2ccc3ncnn3c2)n1 [TEW-7197],0,1.3,0,0,0,0,0,0,0.9,0,5,0.1
O=C(/C=C\n1cnc(-c2cc(C(F)(F)F)cc(C(F)(F)F)c2)n1)NNc1cnccn1 [Selinexor],10.7,15.3,8.1,18.7,8.2,13.9,29,8.2,9.3,16.5,7.9,17.4
CS(=O)(=O)CCNCc1ccc(-c2ccc3ncnc(Nc4ccc(OCc5cccc(F)c5)c(Cl)c4)c3c2)o1 [Lapatinib],0,0.7,0,2.4,0,0,0,0,0,0,0,0
C1=N/C2=N/c3ccc(OCCN4CCCC4)c(c3)COC/C=C/COCc3cccc(c3)C(=C1)N2 [Pacritinib],6.8,9.4,6.5,7.6,5.3,7.5,8.2,10.5,8.2,8,6.2,7.8
Nc1cc(F)ccc1NC(=O)/C=C/c1cnn(C/C=C/c2ccccc2)c1 [RGFP966],2.4,3.3,0.4,0.1,0.6,0.1,1.1,1.9,2.4,0,0,2.3
O=C(c1ccc(C(=O)N2CCC(N3CCCC3)CC2)c(Nc2ccccc2)c1)N1CCC(N2CCCC2)CC1 [UNC1215],0,0,0,0,0,0,0,0,0,0,0,0

# Reference: the supplement of paper PMC11616607
